Patent US20110212100A1, “METHODS FOR MODULATING DEVELOPMENT AND EXPANSION OF IL-17 EXPRESSING CELLS” (priority 2007, published 2011)
Where “and” joins values, the source holds several entries; their conditions need not be identical. Equal entries are not always repeated. Where two headings read alike, the source gives them in different places.

Tests used:
mice = settings: IP, cited from earlier work
fibrosis = settings: Pines et al.; cited from earlier work
SV-MES mesangial cells = assay: Stress response in fibroblasts (eIF2α western blot); assay type: cell-based; settings: 20 nM HF, 2 hours
Experimental: SV-MES mesangial cells were stimulated for 2 hours with DMSO, 20 nM MAZ1310 or 20 nM HF. Whole cell lysates were analyzed for expression of phosphorylated or total eIF2α or GCN2 by western blotting.
Western blotting: Whole cell lysates were generated from T cells activated for the indicated times. For STAT3 and Smad2/3 western blots cells were harvested, washed in PBS and lysed in 50 mM Tris, pH 7.4, 0.1% SDS, 1% Triton-X100, 140 mM NaCl, 1 mM EDTA, 1 mM EGTA supplemented with protease inhibitors tablets (Roche-Germany), 1 mM NaF and 1 mM Na3VO4. For eIF2α and ATF4 western blots, cells were harvested as above and lysed in 50 mM Tris, pH 7.4, 2% SDS, 20% glycerol and 2 mM EDTA supplemented with protease and phosphatase inhibitors as above. All lysates were cleared via centrifugation and 15-30 μg of protein was resolved by SDS-PAGE. Protein was transferred to nitrocellulose membranes, blocked and blotted using specific antibodies. Antibodies used for western blot analysis were anti-phospho-Smad2, anti-STAT3 (pY705), anti-STAT3, anti-eIF2α^pS51, anti-eIF2α, anti-GCN2^pT898, anti-GCN2 (all from cell signaling technology, Danvers, Mass.). Anti-ATF4/CREB2 and anti-β-actin were purchased from Santa Cruz biotechnology (Santa Cruz, Calif.). […]

[1] = system: Th17 differentiation of CD4+ CD25− T cells; assay: Th17 differentiation (IL-17+ IFNγ− cells) of T cells activated with TGFβ plus IL-6; assay type: cell-based; settings: Mus musculus, T-cell, 96 h; murine CD4+ CD25− T cells, restimulation on day 4-5; ± 0.4 nM; read-out: IC50 of repression of Th17 differentiation (percentage of IL-17+ IFNγ− cells)
[2] = cited from earlier work
[3] = system: B220+ B cells and CD8+ T cells; assay: B cell and CD8+ T cell proliferation and function; assay type: cell-based, mouse
Experimental: The non-specific effects of HF on B and CD8+ T cells were evaluated. B220+ B cells or CD8+ T cells were isolated from the spleen and peripheral lymph nodes of C57B/6 mice. B cell proliferation and IL-6 production was induced by culturing the cells with LPS (0.5 μg/ml) for 4 days. The effects of HF on B cell function was determined by adding titrating amounts of HF (1.25 nM-40 nM) at the time of LPS stimulation. B cell proliferation was monitored by labeling cells with Carboxyfluorescein diacetate, succinimidyl ester (CFSE; 5 μM) prior to LPS stimulation and determining the rate of CFSE dilution after 4 days by flow cytometric analyses. LPS-induced IL-6 production by B cells was determined by intracellular staining on day 4, following PMA+Ionomycin+Brefeldin A re-stimulation as described above. For CD8+ T cell experiments, purified CD8+ T cells were labeled with CFSE as above and the T cells were activated using anti-CD3 (1 μg/ml) and anti-CD28 (1 μg/ml) antibodies. […] CD8+ T cell proliferation was determined by monitoring CFSE dilution on day 3-post activation; CD25 expression was determined by FACS staining on day 2 of culture; differentiation of CD8+ T cells into cytolytic T cells (CTL) was evaluated on day 4 by determining expression of IFNγ and granzyme B following PMA+Ionomycin+Brefeldin A re-stimulation. […]

[4] = system: anti-CD3 activated human peripheral blood T cells; settings: cited from earlier work

O=C(CC1NCCCC1O)Cn1cnc2cc(Br)c(Cl)cc2c1=O (racemic) [HF, 7-bromo-6-chloro-3-[3-(3-hydroxy-2-piperidinyl)-2-oxopropyl]-4(3H)-quinazolinone]
radiation induced fibrosis, in words (mice; 1-5 μg/mouse (Xavier et al.)): prevented radiation induced fibrosis but not normal healing of irradiated tissue
toxic effect in mice, in words (mice; 1-5 μg/mouse): without evident toxic effect
concentration range for inhibition of fibrosis in vitro (fibrosis): 1 to 200 nM
eIF2α phosphorylation in SV-MES mesangial cells, in words (SV-MES mesangial cells): increased eIF2α phosphorylation
IC50 [1]: 3.6 nM
peak plasma concentration ([2]; oral 3.5 mg/day): 3 ng/ml and ~8 nM
dose at which dose limiting toxicity occurred ([2]; oral (de Jonge et al.)): 3.5 mg/day
dose limiting toxicity, in words ([2]; oral): nausea and vomiting
recommended tolerated dose for chronic treatment ([2]; oral): 0.5 mg/day
dose limiting toxicity, in words ([2]; oral, listed as halofuginone): nausea
dose at which B and CD8+ T cells were profoundly impaired in proliferation and function [3]: greater than 20 nM
effect on B and CD8+ T cell function or proliferation, in words ([3]; doses lower than 10 nM): little or no effect
NFkB activation and T-cell secretion of cytokines, in words ([4]; 80 nM HF, crude preparation of primary T-cells (Leiba et al.)): broadly suppress NFkB activation and T-cell secretion of cytokines
IC50 ([4]; Lieba et al., read-out: concentration for 50% inhibition of cytokine secretion, NF-kB activation and p38 phosphorylation): 20 to 40 nM
